Test results published in PMC9945182 (Chemical Research in Toxicology, 2023).

How the values were obtained:
[1] = majority of tobacco users; cited from earlier work
CYP2A6 [2] = target: T1, CYP2A6 (Homo sapiens, UniProt P11509); assay type: biochemical; conditions: 10 μM inhibitor; nicotine substrate; CYP2A6 microsomes; vs 100% activity control
T1 sequence (P11509 1-494): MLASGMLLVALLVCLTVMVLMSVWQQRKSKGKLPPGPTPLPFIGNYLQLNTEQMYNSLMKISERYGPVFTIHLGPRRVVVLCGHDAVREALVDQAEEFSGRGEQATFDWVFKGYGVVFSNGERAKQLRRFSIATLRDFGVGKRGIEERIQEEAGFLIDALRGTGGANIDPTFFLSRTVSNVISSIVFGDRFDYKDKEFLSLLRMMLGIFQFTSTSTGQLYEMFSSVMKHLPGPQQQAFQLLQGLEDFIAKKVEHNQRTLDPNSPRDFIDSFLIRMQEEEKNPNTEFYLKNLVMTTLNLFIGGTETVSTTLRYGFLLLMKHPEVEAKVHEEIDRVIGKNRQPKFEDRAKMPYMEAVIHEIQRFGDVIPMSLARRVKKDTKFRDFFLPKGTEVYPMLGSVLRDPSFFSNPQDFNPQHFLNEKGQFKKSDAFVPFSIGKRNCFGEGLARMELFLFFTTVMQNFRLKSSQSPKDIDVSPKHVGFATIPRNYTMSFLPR

CYP2A6 [3] = target: T1, CYP2A6; assay type: biochemical; conditions: 10 μM inhibitor; nicotine substrate; CYP2A6 microsomes
CYP2B6 = target: T2, CYP2B6 (Homo sapiens, UniProt P20813); assay type: biochemical; conditions: human, microsomes from CYP2B6-overexpressing HEK293 cells, pH 7.4, probe nicotine (cotinine formation)
T2 sequence (P20813 1-491): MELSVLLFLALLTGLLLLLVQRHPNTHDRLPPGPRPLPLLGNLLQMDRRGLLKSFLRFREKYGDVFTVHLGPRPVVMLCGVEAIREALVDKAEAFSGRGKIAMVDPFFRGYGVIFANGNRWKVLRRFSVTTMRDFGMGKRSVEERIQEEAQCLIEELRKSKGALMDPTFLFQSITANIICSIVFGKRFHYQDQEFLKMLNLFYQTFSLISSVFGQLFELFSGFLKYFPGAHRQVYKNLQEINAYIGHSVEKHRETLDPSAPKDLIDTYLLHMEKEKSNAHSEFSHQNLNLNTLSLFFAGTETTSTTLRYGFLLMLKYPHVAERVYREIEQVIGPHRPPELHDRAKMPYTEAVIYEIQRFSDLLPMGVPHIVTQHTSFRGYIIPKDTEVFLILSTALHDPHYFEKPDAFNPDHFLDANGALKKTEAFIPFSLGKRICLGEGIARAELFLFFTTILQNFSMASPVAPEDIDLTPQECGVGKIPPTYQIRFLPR

UGT2B7 = target: T3, UGT2B7 (Homo sapiens, UniProt P16662); assay type: biochemical; conditions: human, microsomes from UGT2B7-overexpressing HEK293 cells, pH 7.4, probe 3HC (30 mM), 3HC-Gluc formation
T3 sequence (P16662 24-529): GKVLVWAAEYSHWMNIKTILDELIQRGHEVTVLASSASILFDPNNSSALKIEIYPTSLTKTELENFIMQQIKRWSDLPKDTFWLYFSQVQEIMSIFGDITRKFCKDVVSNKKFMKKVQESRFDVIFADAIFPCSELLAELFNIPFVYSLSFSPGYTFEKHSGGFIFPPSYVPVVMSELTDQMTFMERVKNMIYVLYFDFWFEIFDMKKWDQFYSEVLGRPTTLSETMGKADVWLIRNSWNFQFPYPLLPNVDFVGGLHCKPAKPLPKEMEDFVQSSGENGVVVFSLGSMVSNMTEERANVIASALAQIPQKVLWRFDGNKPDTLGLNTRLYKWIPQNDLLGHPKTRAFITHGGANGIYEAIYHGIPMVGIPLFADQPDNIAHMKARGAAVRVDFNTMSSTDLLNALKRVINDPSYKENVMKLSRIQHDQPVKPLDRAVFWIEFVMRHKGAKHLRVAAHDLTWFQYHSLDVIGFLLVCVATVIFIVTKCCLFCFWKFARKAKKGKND

UGT2B17 = target: T4, UGT2B17 (Homo sapiens, UniProt O75795); assay type: biochemical; conditions: human, microsomes from UGT2B17-overexpressing HEK293 cells, pH 7.4, probe 3HC (30 mM), 3HC-Gluc formation
T4 sequence (O75795 24-530): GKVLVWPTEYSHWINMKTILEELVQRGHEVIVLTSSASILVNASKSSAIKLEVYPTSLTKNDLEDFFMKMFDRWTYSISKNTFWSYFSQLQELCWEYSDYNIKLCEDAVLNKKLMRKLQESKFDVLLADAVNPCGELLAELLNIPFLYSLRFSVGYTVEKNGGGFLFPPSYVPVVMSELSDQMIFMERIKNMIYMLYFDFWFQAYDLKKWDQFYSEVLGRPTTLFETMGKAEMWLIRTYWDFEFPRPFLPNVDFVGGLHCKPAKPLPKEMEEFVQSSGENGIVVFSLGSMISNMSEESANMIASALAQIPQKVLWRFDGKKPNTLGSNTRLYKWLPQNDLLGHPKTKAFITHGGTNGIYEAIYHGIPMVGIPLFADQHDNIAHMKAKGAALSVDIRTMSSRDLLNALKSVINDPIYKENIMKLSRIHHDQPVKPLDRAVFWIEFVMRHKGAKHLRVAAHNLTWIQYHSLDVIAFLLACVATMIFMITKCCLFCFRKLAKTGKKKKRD

CYP2A6 [4] = conditions: cited from earlier work

In the case of `CN1CCC[C@H]1c1cccnc1` [nicotine], the “fraction of nicotine metabolized to cotinine by CYP2A6” value [1] is listed as “greater than 70%”.

In the case of `N[C@@H]1C[C@H]1c1ccccc1` (racemic) [tranylcypromine], the “inhibition of cotinine formation” value (CYP2A6 [2]) is reported as 70% and the “inhibition of nornicotine formation” value (CYP2A6 [3]) is reported as 95%.

`COC(=O)[C@H](c1ccccc1Cl)N1CCc2sccc2C1` [clopidogrel] showed an inhibition at 30 min, 50 µM (CYP2B6) of 60%.

In the case of `Cc1ccc(NC(=O)c2ccc(CN3CCN(C)CC3)cc2)cc1Nc1nccc(-c2cccnc2)n1` [imatinib], the inhibition at 200 µM (UGT2B7) is reported as ≤ 65% and the inhibition at 200 µM (UGT2B17) is reported as ≤ 65%.

In the case of `C#CCN(C)[C@H](C)Cc1ccccc1` [selegiline], the Ki (CYP2A6 [4]) is given as 4.6 µM.
